Columns and labels:
MDA-MB-231 [1] = assay: Induction of apoptosis in human MDA-MB-231 cells assessed as early apoptotic cells at 1.25 uM after 24 hrs by Annexin-V/PI-staining based flow cytometry (reference value: 2.67%); type: functional
MDA-MB-231 [2] = assay: Induction of cell cycle arrest in human MDA-MB-231 cells assessed as accumulation at G2 phase at 1.5 uM after 12 hrs by propidium iodide staining-based flow cytometric analysis (reference value: 21.11%); type: functional
MDA-MB-231 [3] = assay: Induction of apoptosis in human MDA-MB-231 cells assessed as late apoptotic cells at 10 uM after 24 hrs by Annexin-V/PI-staining based flow cytometry (reference value: 3.02%); type: functional
MDA-MB-453 = assay: Antiproliferative activity against human MDA-MB-453 cells assessed as reduction in cell viability after 72 hrs by MTT assay; type: functional, cell-based; details: MDA-MB-453, 72 h
CDK6/cyclin D3 = CDK6/cyclin D3 (Homo sapiens, UniProt Q00534); assay: Inhibition of CDK6/Cyclin D3 (unknown origin) by mobility shift assay; type: protein-complex assay
MDA-MB-231 [4] = assay: Induction of apoptosis in human MDA-MB-231 cells assessed as early apoptotic cells at 10 uM after 24 hrs by Annexin-V/PI-staining based flow cytometry (reference value: 2.67%); type: functional
MDA-MB-231 [5] = assay: Induction of cell cycle arrest in human MDA-MB-231 cells assessed as accumulation at S phase at 1.5 uM after 12 hrs by propidium iodide staining-based flow cytometric analysis (reference value: 23.71%); type: functional
MDA-MB-231 [6] = assay: Induction of apoptosis in human MDA-MB-231 cells assessed as early apoptotic cells at 0.625 uM after 24 hrs by Annexin-V/PI-staining based flow cytometry (reference value: 2.67%); type: functional
MDA-MB-231 [7] = assay: Induction of cell cycle arrest in human MDA-MB-231 cells assessed as accumulation at S phase at 0.75 uM after 12 hrs by propidium iodide staining-based flow cytometric analysis (reference value: 23.71%); type: functional
MCF7 = assay: Antiproliferative activity against human MCF7 cells assessed as reduction in cell viability after 72 hrs by MTT assay; type: functional, cell-based; details: MCF7, 72 h
[8] = target: Cyclin-dependent kinase 4/cyclin D1 (Homo sapiens) (UniProt P11802+P24385); assay: Inhibition of CDK4/Cyclin D1 (unknown origin) at 200 nM using ATP by mobility shift assay; type: protein-complex assay
[9] = target: Cyclin-dependent kinase 1/cyclin B1 (Homo sapiens, UniProt P06493); assay: Inhibition of CDK1/cyclin B (unknown origin); type: protein-complex assay
CDK7/Cyclin H/MNAT1 = CDK7/Cyclin H/MNAT1 (Homo sapiens, UniProt P50613); assay: Inhibition of CDK7/cyclin H/MAT1 (unknown origin); type: protein-complex assay
MDA-MB-231 [10] = assay: Induction of apoptosis in human MDA-MB-231 cells assessed as late apoptotic cells at 5 uM after 24 hrs by Annexin-V/PI-staining based flow cytometry (reference value: 3.02%); type: functional
MDA-MB-231 [11] = assay: Antitumor activity against human MDA-MB-231 cells xenografted in po dosed BALB/c mouse assessed as reduction in tumor volume measured every 3 days for 21 days; type: functional, organism-based; details: dose 40-80 mg/kg, time 21.0 day
L02 = assay: Cytotoxicity against human L02 cells measured upto 20 uM after 72 hrs by MTT assay; type: cell-based; details: l02, 72 h

Chain of Cyclin-dependent kinase 1/cyclin B1 (P06493 whole entry): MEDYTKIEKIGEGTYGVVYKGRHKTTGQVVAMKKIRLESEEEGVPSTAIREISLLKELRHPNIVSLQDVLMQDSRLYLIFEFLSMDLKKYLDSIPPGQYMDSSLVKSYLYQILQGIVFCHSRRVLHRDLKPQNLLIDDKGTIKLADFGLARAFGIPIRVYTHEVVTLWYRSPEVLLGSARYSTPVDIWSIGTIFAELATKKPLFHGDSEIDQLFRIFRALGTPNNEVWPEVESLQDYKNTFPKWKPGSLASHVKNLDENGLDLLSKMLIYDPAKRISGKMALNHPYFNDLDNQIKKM
Chain of Cyclin-dependent kinase 1/cyclin B1 (P14635 whole entry, further chain): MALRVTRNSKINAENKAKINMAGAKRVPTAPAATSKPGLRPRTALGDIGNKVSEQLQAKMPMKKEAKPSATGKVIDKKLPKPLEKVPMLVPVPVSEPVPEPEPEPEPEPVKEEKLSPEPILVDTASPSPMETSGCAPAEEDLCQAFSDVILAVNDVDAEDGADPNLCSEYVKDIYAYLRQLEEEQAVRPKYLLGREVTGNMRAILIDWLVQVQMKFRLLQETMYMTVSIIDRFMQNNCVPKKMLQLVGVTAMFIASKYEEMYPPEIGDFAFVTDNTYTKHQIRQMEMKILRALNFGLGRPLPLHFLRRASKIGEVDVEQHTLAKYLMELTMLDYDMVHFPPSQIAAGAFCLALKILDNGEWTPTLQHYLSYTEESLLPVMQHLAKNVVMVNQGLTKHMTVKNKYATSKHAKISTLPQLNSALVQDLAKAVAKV
Chain of CDK7/Cyclin H/MNAT1 (P51946 whole entry): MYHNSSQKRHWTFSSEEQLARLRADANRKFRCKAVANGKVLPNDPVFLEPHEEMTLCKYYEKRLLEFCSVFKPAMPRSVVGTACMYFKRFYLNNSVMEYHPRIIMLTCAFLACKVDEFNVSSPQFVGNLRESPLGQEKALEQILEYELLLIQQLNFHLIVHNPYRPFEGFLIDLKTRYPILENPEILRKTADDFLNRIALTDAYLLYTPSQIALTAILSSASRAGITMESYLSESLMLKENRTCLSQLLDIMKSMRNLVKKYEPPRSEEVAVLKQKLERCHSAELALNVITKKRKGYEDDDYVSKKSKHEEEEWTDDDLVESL
Chain of CDK7/Cyclin H/MNAT1 (P50613 whole entry): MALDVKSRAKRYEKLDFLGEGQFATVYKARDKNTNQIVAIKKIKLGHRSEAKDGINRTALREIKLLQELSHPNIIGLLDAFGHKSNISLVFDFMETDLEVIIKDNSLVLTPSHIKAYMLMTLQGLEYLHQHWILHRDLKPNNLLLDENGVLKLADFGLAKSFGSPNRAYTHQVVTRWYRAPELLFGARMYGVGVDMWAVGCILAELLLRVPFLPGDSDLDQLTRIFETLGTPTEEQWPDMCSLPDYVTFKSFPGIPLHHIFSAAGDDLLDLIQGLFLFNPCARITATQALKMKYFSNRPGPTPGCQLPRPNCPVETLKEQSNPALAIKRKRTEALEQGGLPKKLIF
Chain of CDK7/Cyclin H/MNAT1 (P51948 whole entry, further chain): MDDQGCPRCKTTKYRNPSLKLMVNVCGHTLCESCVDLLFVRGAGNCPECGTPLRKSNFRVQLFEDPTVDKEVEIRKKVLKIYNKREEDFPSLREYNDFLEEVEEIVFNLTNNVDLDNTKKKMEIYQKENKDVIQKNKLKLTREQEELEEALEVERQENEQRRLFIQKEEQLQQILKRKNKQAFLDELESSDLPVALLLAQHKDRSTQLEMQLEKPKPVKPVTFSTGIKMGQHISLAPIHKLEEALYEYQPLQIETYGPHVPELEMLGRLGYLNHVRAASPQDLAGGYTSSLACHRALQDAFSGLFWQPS
Chain of CDK6/cyclin D3 (P30281 whole entry): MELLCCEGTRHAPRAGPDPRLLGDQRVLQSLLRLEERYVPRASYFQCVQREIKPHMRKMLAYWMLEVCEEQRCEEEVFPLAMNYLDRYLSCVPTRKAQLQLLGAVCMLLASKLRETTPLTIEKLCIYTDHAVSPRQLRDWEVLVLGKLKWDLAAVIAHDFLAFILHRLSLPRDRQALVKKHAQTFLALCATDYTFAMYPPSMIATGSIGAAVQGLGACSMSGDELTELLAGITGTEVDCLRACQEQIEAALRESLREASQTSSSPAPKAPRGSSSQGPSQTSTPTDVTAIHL
Chain of CDK6/cyclin D3 (Q00534 whole entry): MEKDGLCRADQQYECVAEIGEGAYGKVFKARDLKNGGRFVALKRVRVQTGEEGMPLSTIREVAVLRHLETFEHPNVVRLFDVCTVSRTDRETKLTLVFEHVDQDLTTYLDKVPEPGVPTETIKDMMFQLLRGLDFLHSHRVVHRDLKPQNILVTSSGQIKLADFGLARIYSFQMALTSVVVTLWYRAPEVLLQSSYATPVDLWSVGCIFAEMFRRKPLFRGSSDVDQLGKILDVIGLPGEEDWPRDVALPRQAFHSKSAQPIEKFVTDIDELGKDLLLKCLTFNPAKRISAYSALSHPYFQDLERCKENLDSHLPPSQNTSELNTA

## CC(=O)c1c(C)c2cnc(Nc3ccc(N4CCN(C(=O)CCl)CC4)cn3)nc2n(C2CCCC2)c1=O
MDA-MB-231 [1]
  Activity: 7.72%
MDA-MB-231 [2]
  Activity: 19.72%
MDA-MB-231 [3]
  Activity: 14.54%
MDA-MB-453
  IC50: 1.75 µM
CDK6/cyclin D3
  IC50: 0.014 µM
MDA-MB-231 [4]
  Activity: 68.48%
MDA-MB-231 [5]
  Activity: 7.55%
MDA-MB-231 [6]
  Activity: 4.24%
MDA-MB-231 [7]
  Activity: 11.05%
MCF7
  IC50: 0.38 µM
[8]
  inhibition: 93.8%
[9]
  IC50: > 10 µM
CDK7/Cyclin H/MNAT1
  IC50: > 3.33 µM
MDA-MB-231 [10]
  Activity: 27.32%
MDA-MB-231 [11]
  inhibition: Dose-Dependent Effect
L02
  Activity: Non-Toxic

Source: ChEMBL document CHEMBL4819081 (Eur J Med Chem, 2021)
